Laboratory results: US20090117192A1, “COMPOSITION FOR TRANSDERMAL ABSORPTION AND FORMULATION COMPRISING A POLYMERIC MATRIX FORMED THEREFROM” (priority 2007, published 2009)
Like-named read-outs stand apart in the source and are kept apart here.

Experiment: Meloxicam solubility enhancement test of sodium methoxide (saturation, HPLC)
Protocol: Meloxicam was mixed with an equivalent amount of sodium methoxide, and the mixture was dissolved to the saturation point in distilled water, methanol, ethylacetate, tetrahydrofuran or N-methylpyrrolidone. The resulting solution was subjected to high performance liquid chromatography to measure the meloxicam solubility.
Only Meloxicam without using sodium methoxide was dissolved to the saturation point in distilled water, methanol, ethylacetate, tetrahydrofuran or N-methylpyrrolidone, and then the resulting solution was subjected to high performance liquid chromatography to measure the meloxica solubility.

Cc1cnc(NC(=O)C2=C(O)c3ccccc3S(=O)(=O)N2C)s1 [Comparative Example 1, Meloxicam]
Meloxicam solubility: 60 µg/mL

Cc1cnc(NC(=O)C2=C(O)c3ccccc3S(=O)(=O)N2C)s1 [Comparative Example 3, Meloxicam]
Meloxicam solubility (saturation, HPLC): 1280 µg/mL

Cc1cnc(NC(=O)C2=C(O)c3ccccc3S(=O)(=O)N2C)s1 [Comparative Example 4, Meloxicam]
Meloxicam solubility: 21910 µg/mL

Cc1cnc(NC(=O)C2=C(O)c3ccccc3S(=O)(=O)N2C)s1 [Comparative Example 5, Meloxicam]
Meloxicam solubility: 92700 µg/mL

Cc1cnc(NC(=O)C2=C(O)c3ccccc3S(=O)(=O)N2C)s1 [Comparative Example 2, Meloxicam]
Meloxicam solubility: 430 µg/mL
